Test results from US7842808B2, “Anti-migraine spirocycles” (Bristol-Myers Squibb Company, priority 2002, dated 2010).

target: T1, CGRP receptor (SK-N-MC cell membranes) (Homo sapiens, UniProt O60894+Q16602); test: CGRP Binding Assay ([125I]-CGRP radioligand binding, SK-N-MC homogenate); settings: displacement of [125I]-CGRP, SK-N-MC homogenate; read-out: CGRP binding IC50
T1 construct: endogenous in cells; host or cells: SK-N-MC cells (membrane homogenate)
Protocol: Tissue Culture. SK-N-MC cells were grown at 37° C. in 5% CO2 as a monolayer in medium consisting of MEM with Earle's salts and L-glutamine (Gibco) supplemented with 10% fetal bovine serum (Gibco).
Cell Pellets. […] The cells were transferred from plates to polypropylene tubes (16×100 mm) and homogenized using a polytron. Homogenates were centrifuged at 32,000×g for 30 min. The pellets were resuspended in cold hypotonic lysis buffer with 0.1% mammalian protease inhibitor cocktail (Sigma) and assayed for protein concentration. The SK-N-MC homogenate was then aliquoted and stored at −80° C. until needed.
Radioligand Binding Assay. The compounds of invention were solubilized and carried through serial dilutions using 100% DMSO. Aliquots from the compound serial dilutions were further diluted 25 fold into assay buffer (50 mM Tris-Cl pH 7.5, 5 mM MgCl2, 0.005% Triton X-100) and transferred (volume 50 μl) into 96 well assay plates. […] SK-N-MC pellets were thawed, diluted in assay buffer with fresh 0.1% mammalian protease inhibitor cocktail (Sigma), and homogenized again. SK-N-MC homogenate (5 μg/well) was added in a volume of 100 μl. The assay plates were then incubated at room temperature for 2 h. Assays were stopped by addition of excess cold wash buffer (20 mM Tris-Cl pH 7.5, 0.1% BSA) immediately followed by filtration over glass fiber filters (Whatman GF/B) previously soaked in 0.5% PEI. Non-specific binding was defined with 1 μM beta-CGRP. Protein bound radioactivity was determined using a gamma or scintillation counter.

T1 sequence (Q16602 23-461): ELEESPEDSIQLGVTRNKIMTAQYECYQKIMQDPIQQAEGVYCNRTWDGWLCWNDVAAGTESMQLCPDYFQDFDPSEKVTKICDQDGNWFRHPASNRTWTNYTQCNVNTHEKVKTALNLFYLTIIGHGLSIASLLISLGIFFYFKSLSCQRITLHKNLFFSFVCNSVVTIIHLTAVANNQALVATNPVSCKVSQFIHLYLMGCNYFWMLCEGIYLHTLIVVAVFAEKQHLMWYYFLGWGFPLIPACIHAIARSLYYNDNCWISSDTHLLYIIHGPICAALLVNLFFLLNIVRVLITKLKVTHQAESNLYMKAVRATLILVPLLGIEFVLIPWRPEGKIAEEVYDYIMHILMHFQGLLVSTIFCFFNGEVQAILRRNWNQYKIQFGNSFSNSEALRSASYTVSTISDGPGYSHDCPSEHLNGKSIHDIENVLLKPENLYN
T1 sequence (O60894 27-148): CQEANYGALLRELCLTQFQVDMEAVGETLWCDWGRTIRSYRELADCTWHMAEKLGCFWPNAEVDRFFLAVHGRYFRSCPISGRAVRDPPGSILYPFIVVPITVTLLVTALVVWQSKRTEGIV

| Compound | IC50 |
| --- | --- |
| COc1ccc(Cl)cc1NC(=O)N[C@@H](CC(=O)N1CCC(N2Cc3ccccc3NC2=O)CC1)C(=O)N1CCC(N2CCCCC2)CC1 [Example 187] | 100 to 1000 nM |
| O=C(N[C@@H](CC(=O)N1CCC(N2Cc3ccccc3NC2=O)CC1)C(=O)N1CCC(N2CCCCC2)CC1)[C@@H]1C[C@H]1c1ccccc1 [Example 104] | 100 to 1000 nM |
| COc1ccccc1NC(=O)N[C@@H](CC(=O)N1CCC(N2Cc3ccccc3NC2=O)CC1)C(=O)N1CCC(N2CCCCC2)CC1 [Example 149] | 10 to 100 nM |
| Cc1cc(CC(NC(=O)N2CCC3(CC2)OC(=O)Nc2ccccc23)C(=O)NCc2ccncc2)cc2cn[nH]c12 (racemic) [Example 30, (±)-1′,2′-Dihydro-2′-oxospiro-[4H-3′,1-benzoxazine-4,4′-piperidine-1-carboxylic acid {2-(7-methyl-1H-indazol-5-yl)-1-[(pyridin-4-ylmethyl)-carbamoyl]-ethyl}-amide] | 10 to 100 nM |
| O=C(N[C@@H](CC(=O)N1CCC(N2Cc3ccccc3NC2=O)CC1)C(=O)N1CCC(N2CCCCC2)CC1)C1CC1 [Example 103] | 100 to 1000 nM |
| Cc1ccc(NC(=O)N[C@@H](CC(=O)N2CCC(N3Cc4ccccc4NC3=O)CC2)C(=O)N2CCC(N3CCCCC3)CC2)c(C)c1 [Example 185] | 100 to 1000 nM |
| O=C(Nc1ccccc1OC(F)(F)F)N[C@@H](CC(=O)N1CCC(N2Cc3ccccc3NC2=O)CC1)C(=O)N1CCC(N2CCCCC2)CC1 [Example 200] | 10 to 100 nM |
| C[C@@H](NC(=O)N[C@@H](CC(=O)N1CCC(N2Cc3ccccc3NC2=O)CC1)C(=O)N1CCC(N2CCCCC2)CC1)c1ccccc1 [Example 198] | 100 to 1000 nM |
| O=C(N[C@@H](CC(=O)N1CCC(N2Cc3ccccc3NC2=O)CC1)C(=O)N1CCC(N2CCCCC2)CC1)Oc1ccc(Br)cc1 [Example 133] | 100 to 1000 nM |
| Cc1cc(CC(NC(=O)N2CCC3(CC2)CC(=O)Nc2ccccc23)C(=O)N(C)C)cc2cn[nH]c12 (racemic) [Example 33, (±)-[1-Dimethylcarbmoyl-2-(7-methyl-1H-indazol-5-yl)-ethy]1-3′,4′-dihydro-2′-oxospiro-[piperidine-4,4′-(1H)-quinoline]-1-carboxamide] | 100 to 1000 nM |
| COC(=O)C(Cc1cc(C)c2[nH]ncc2c1)NC(=O)N1CCC2(CC1)NC(=O)Nc1ccccc12 (centres unmarked) [Example 13, 3-(7-Methyl-1H-indazol-5-yl)-2-[2′,3′-dihydro-2′-oxospiro-(piperidine-4,4′-(1H)-quinazoline)carbonylamino]-propionic acid methyl ester] | 100 to 1000 nM |
| Cc1c(Cl)cccc1NC(=O)N[C@@H](CC(=O)N1CCC(N2Cc3ccccc3NC2=O)CC1)C(=O)N1CCC(N2CCCCC2)CC1 [Example 192] | 100 to 1000 nM |
| O=C(C[C@H](NC1CCC(O)CC1)C(=O)N1CCC(N2CCCCC2)CC1)N1CCC(N2Cc3ccccc3NC2=O)CC1 (some centres unmarked) [Example 97, (L)-1-[1,4′]Bipiperidinyl-1′-yl-2-(4-hydroxy-cyclohexylamino)-4-[4-(2-oxo-1,4-dihydro-2H-quinazolin-3-yl)-piperidin-1-yl]-butane-1,4-dione] | > 1000 nM |
| O=C(Nc1ccc(C(F)(F)F)cc1)N[C@@H](CC(=O)N1CCC(N2Cc3ccccc3NC2=O)CC1)C(=O)N1CCC(N2CCCCC2)CC1 [Example 160] | 100 to 1000 nM |
| CCOC(=O)C(C)NC(=O)N[C@@H](CC(=O)N1CCC(N2Cc3ccccc3NC2=O)CC1)C(=O)N1CCC(N2CCCCC2)CC1 (some centres unmarked) [Example 170] | 100 to 1000 nM |

Second part, the molecule after the results:

| IC50 | Compound |
| --- | --- |
| 100 to 1000 nM | O=C(N[C@@H](CC(=O)N1CCC(N2Cc3ccccc3NC2=O)CC1)C(=O)N1CCC(N2CCCCC2)CC1)c1cc2ccccc2s1 [Example 126] |
| > 1000 nM | CN(C)/C=C/CN1CCN(C(=O)C(Cc2ccc3[nH]ncc3c2)NC(=O)N2CCC(N3Cc4ccccc4NC3=O)CC2)CC1 (centres unmarked) [Example 40h] |
| > 1000 nM | O=C(N[C@@H](CC(=O)N1CCC(N2Cc3ccccc3NC2=O)CC1)C(=O)N1CCC(N2CCCCC2)CC1)c1cc[nH]n1 [Example 101, (L)-1H-Pyrazole-3-carboxylic acid{1-([1,4′]bipiperidinyl-1′-carbonyl)-3-oxo-3-[4-(2-oxo-1,4-dihydro-2H-quinazolin-3-yl)-piperidin-1-yl]-propyl}-amide] |
| 10 to 100 nM | O=C(Nc1ccccc1F)N[C@@H](CC(=O)N1CCC(N2Cc3ccccc3NC2=O)CC1)C(=O)N1CCC(N2CCCCC2)CC1 [Example 171] |
| > 1000 nM | COC(=O)[C@@H](Cc1ccc2[nH]nnc2c1)NC(=O)N1CCC(N2Cc3ccccc3NC2=O)CC1 [Example 48, (R)-3-(1H-Benzotriazol-5-yl)-2-{[4-(2-oxo-1,4-dihydro-2H-quinazolin-3-yl)-piperidine-1-carbonyl]-amino}-propionic acid methyl ester] |
| < 10 nM | O=C1Cc2cc(C[C@@H](NC(=O)N3CCC(N4Cc5ccccc5NC4=O)CC3)C(=O)N3CCC(N4CCCCC4)CC3)ccc2N1 [Example 50, (R)-4-(2-Oxo-1,4-dihydro-2H-quinazolin-3-yl)-piperidine-1-carboxylic acid[2-[1,4′]bipiperidinyl-1′-yl-2-oxo-1-(2-oxo-2,3-dihydro-1H-indol-5-ylmethyl)-ethyl]-amide] |
| 100 to 1000 nM | O=C(Nc1cccc2ccccc12)N[C@@H](CC(=O)N1CCC(N2Cc3ccccc3NC2=O)CC1)C(=O)N1CCC(N2CCCCC2)CC1 [Example 137] |
| 100 to 1000 nM | O=C(Nc1ccc2ccccc2c1)N[C@@H](CC(=O)N1CCC(N2Cc3ccccc3NC2=O)CC1)C(=O)N1CCC(N2CCCCC2)CC1 [Example 135] |
| 100 to 1000 nM | O=C(NC(Cc1ccc(=O)[nH]c1)C(=O)N1CCC(N2CCCCC2)CC1)N1CCC(N2Cc3ccccc3NC2=O)CC1 (racemic) [Example 60, (±)-4-(2-Oxo-1,4-dihydro-2H-quinazolin-3-yl)-piperidine-1-carboxylic acid[2-[1,4′]bipiperidinyl-1′-yl-2-oxo-1-(6-oxo-1,6-dihydro-pyridin-3-ylmethyl)-ethyl]-amide] |
| 100 to 1000 nM | Cc1ccc(C)c(NC(=O)N[C@@H](CC(=O)N2CCC(N3Cc4ccccc4NC3=O)CC2)C(=O)N2CCC(N3CCCCC3)CC2)c1 [Example 157] |
| < 10 nM | Cc1cc(CC(NC(=O)N2CCC(N3Cc4ccccc4NC3=O)CC2)C(=O)O[C@H](C)c2ccncc2)cc2cn[nH]c12 (stereo partly drawn) [Example 41e, 3-(7-Methyl-1H-indazol-5-yl)-2-{[4-(2-oxo-1,4-dihydro-2H-quinazolin-3-yl)-piperidine-1-carbonyl]-amino}-propionic acid (R)-1-pyridin-4-yl-ethyl ester] |
| 10 to 100 nM | O=C(N[C@@H](CC(=O)N1CCC(N2Cc3ccccc3NC2=O)CC1)C(=O)N1CCC(N2CCCCC2)CC1)c1cccc(Cl)c1Cl [Example 123] |
| 100 to 1000 nM | O=C(Nc1ccccc1-c1ccccc1)N[C@@H](CC(=O)N1CCC(N2Cc3ccccc3NC2=O)CC1)C(=O)N1CCC(N2CCCCC2)CC1 [Example 197] |
| > 1000 nM | O=C(NC(Cn1ccc(O)cc1=O)C(=O)N1CCC(N2CCCCC2)CC1)N1CCC(N2Cc3ccccc3NC2=O)CC1 (racemic) [Example 52, (±)-4-(2-Oxo-1,4-dihydro-2H-quinazolin-3-yl)-piperidine-1-carboxylic acid[2-[1,4′]bipiperidinyl-1′-yl-1-(4-hydroxy-2-oxo-2H-pyridin-1-ylmethyl)-2-oxo-ethyl]-amide] |
| 10 to 100 nM | O=C(Nc1ccccc1Cl)N[C@@H](CC(=O)N1CCC(N2Cc3ccccc3NC2=O)CC1)C(=O)N1CCC(N2CCCCC2)CC1 [Example 172] |
| > 1000 nM | CN1CCN(C(=O)C(Cc2ccc3[nH]ncc3c2)NC(=O)N2CCC(N3Cc4ccccc4NC3=O)CC2)CC1 (centres unmarked) [Example 40k] |
| 100 to 1000 nM | COC(=O)C(Cc1cc(Cl)c2[nH]ncc2c1)NC(=O)N1CCC(N2Cc3ccccc3NC2=O)CC1 (racemic) [Example 42, (±)-3-(7-Chloro-1H-indazol-5-yl)-2-{[4-(2-oxo-1,4-dihydro-2H-quinazolin-3-yl)-piperidine-1-carbonyl]-amino}-propionic acid methyl ester] |
| > 1000 nM | O=C(NC(Cc1ccc2[nH]ncc2c1)C(=O)N1CCN(Cc2ccco2)CC1)N1CCC(N2Cc3ccccc3NC2=O)CC1 (centres unmarked) [Example 40e] |
| 100 to 1000 nM | O=C(N[C@@H](CC(=O)N1CCC(N2Cc3ccccc3NC2=O)CC1)C(=O)N1CCC(N2CCCCC2)CC1)c1sc2ccccc2c1Cl [Example 125] |
| 100 to 1000 nM | COc1ccc(NC(=O)N[C@@H](CC(=O)N2CCC(N3Cc4ccccc4NC3=O)CC2)C(=O)N2CCC(N3CCCCC3)CC2)cc1 [Example 181] |
| 100 to 1000 nM | COc1ccc(CC(NC(=O)N2CCC(N3Cc4ccccc4NC3=O)CC2)C(=O)N2CCC(N3CCCCC3)CC2)cn1 (racemic) [Example 57, (±)-4-(2-Oxo-1,4-dihydro-2H-quinazolin-3-yl)-piperidine-1-carboxylic acid[2-[1,4′]bipiperidinyl-1′-yl-1-(6-methoxy-pyridin-3-ylmethyl)-2-oxo-ethyl]-amide] |
| 10 to 100 nM | O=C(Nc1cccc(Cl)c1)N[C@@H](CC(=O)N1CCC(N2Cc3ccccc3NC2=O)CC1)C(=O)N1CCC(N2CCCCC2)CC1 [Example 178] |
| 10 to 100 nM | CCC(CN1CCN(C(=O)C(Cc2ccc3[nH]ncc3c2)NC(=O)N2CCC(N3Cc4ccccc4NC3=O)CC2)CC1)C(C)C (centres unmarked) [Example 40i] |
